In patent US5607926A, “Cephalosporin antibiotics” (Microcide Pharmaceuticals, Inc., priority 1995, dated 1997):
In brackets after ≈: the same amount, converted by molar mass. Structures can show the parent of a compound that is named as a salt. Where two headings read alike, the source gives them in different places.

Tests used:
Type in all cases: cell-based
[1] = tested on: S. epidermidis ATCC 31432; assay: In vitro antibacterial evaluation, MIC by agar dilution, S. epidermidis ATCC 31432; settings: Staphylococcus epidermidis, ATCC31432
Method in brief: (§1)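 Two-fold dilutions of test compound, 128 μg/mL down to ≤0.25 μg/mL, were set in Mueller-Hinton agar in duplicate and spot-inoculated with about 10^4 cfu of log-phase culture. Plates were incubated 16-20 hours at 35°-36° C, and MIC taken as the lowest concentration inhibiting growth, following NCCLS agar dilution.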

S. aureus ATCC 25923 = assay: In vitro antibacterial evaluation, MIC by agar dilution, S. aureus ATCC 25923; settings: Staphylococcus aureus, ATCC25923
Description: The compounds of the invention were evaluated against several β-lactamresistant bacteria strains by determining the minimum inhibitory concentration (MIC, μg/ml) of each compound with respect to each strain. The MIC, the lowest concentration of antibiotic which inhibits growth of the test organism, was determined by the agar dilution method.
To determine the MIC for bacterial isolates, the test compound was incorporated in a series of two-fold dilutions into liquified Mueller-Hinton agar. Upon solidification, a number of different bacterial strains were spot inoculated with a replicating device onto the agar surface. […] The procedures used in these studies have been standardized by the National Committee for Clinical Laboratory Standards (NCCLS), as per the NCCLS publication entitled METHODS FOR DILUTION ANTIMICROBIAL SUSCEPTIBILITY TESTS (1991), which is incorporated herein by reference.
Aliquots of antimicrobial agents were prepared in phosphate buffered saline (PBS) at pH 7.2. Tween 20 or DMSO was used as a solubilizing vehicle as needed. Standard methods of vortexing, sonicating and gentle heat were used to facilitate solubilizing the test agent. Typically, the concentration of the stock solution was 10× that of the highest drug concentration tested. A 1.28 mg/mL stock solution was used with a subsequent highest working concentration of 128 μg/mL. Serial two-fold dilutions were done through ≤0.25 μg/mL. Each drug level was tested in duplicate. Two-fold drug dilutions were done in sterile 50 mL tubes with a final drug volume of 5 mL. Upon the addition of 45 mL of molten agar, a 10-fold dilution resulted. Two, 25 mL. plates were then poured into 15×150 mm square Petri plates with grids and allowed to harden.
A control plate with a reference drug, either cefotaxime, vancomycin or imipenem, was used as the positive growth control. Stock concentrations of reference antibiotics were prepared and frozen at -80° C. Upon preparation, the control plates were sealed and stored in the refrigerator for up to 1 week prior to use; however, imipenem control plates had to be prepared just prior to use. All test plates were used within 24 hours of preparation.
Satisfactory results were obtained where the inoculum contained about 10^4 colony forming units (cfu) ±0.5 logs. Starting with pure cultures of the test isolates on agar plates, a few isolated colonies were transferred to a tube of nutrient broth and allowed to grow 4-6 hours at 35°-36° C. to reach log-phase growth. Dropwise addition of the broth culture to PBS was done to match a 0.5 McFarland turbidity standard equal to 10^8 cfu/mL. This was further diluted ten-fold in PBS to reach a working inoculum concentration of 10^7 cfu/mL. When 1 μL of the working inoculum was applied to the agar surface a concentration of about 10^4 cfu per spot was obtained.
Disposable sterile 1 μL loops were used to inoculate test plates, with each isolate in a designated grid on the agar plate. An alternate method of inoculation involved the use of a replica plater, a device with 48 steel pins allowing the simultaneous inoculation of multiple isolates. After the spots had dried, the plates were incubated at 35°-36° C. for 16-20 hours. Endpoints were assessed as the minimum inhibitory concentration (MIC) of antimicrobial agent.

[2] = tested on: S. aureus 76 (Meth^R)(lac^+); assay: In vitro antibacterial evaluation, MIC by agar dilution, S. aureus 76; settings: Staphylococcus aureus, read-out: MIC
Method in brief: as §1

[3] = tested on: S. aureus Col8A (Meth^S)(lac^-); assay: In vitro antibacterial evaluation, MIC by agar dilution, S. aureus Col8A; settings: Staphylococcus aureus
Method in brief: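 Agar dilution per NCCLS (1991): two-fold dilutions from 128 μg/mL down to ≤0.25 μg/mL in Mueller-Hinton agar, each level in duplicate. Spots of about 10^4 cfu of log-phase culture; 16-20 h at 35°-36° C. MIC in μg/ml is the lowest concentration inhibiting growth.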

E. faecium ATCC 35667 = assay: In vitro antibacterial evaluation, MIC by agar dilution, E. faecium ATCC 35667; settings: Enterococcus faecium, ATCC35667, read-out: MIC
Method in brief: as §1

S. haemolyticus (Meth^R) = assay: In vitro antibacterial evaluation, MIC by agar dilution, S. haemolyticus; settings: Staphylococcus haemolyticus, read-out: MIC
Method in brief: as §1

E. coli ATCC 25922 = assay: In vitro antibacterial evaluation, MIC by agar dilution, E. coli ATCC 25922; settings: Escherichia coli, ATCC25922, read-out: MIC
Method in brief: as §1

P. aeruginosa ATCC 27853 = assay: In vitro antibacterial evaluation, MIC by agar dilution, P. aeruginosa ATCC 27853; settings: Pseudomonas aeruginosa, ATCC27853, read-out: MIC
Method in brief: as §1

E. faecalis ATCC 29212 = assay: In vitro antibacterial evaluation, MIC by agar dilution, E. faecalis ATCC 29212; settings: Enterococcus faecalis, ATCC29212; E. faecalis ATCC 29212; read-out: MIC
Method in brief: as §1

Row | Compound | MIC [1] [mg/L] | MIC (S. aureus ATCC 25923) [mg/L] | MIC [2] [mg/L] | MIC [3] [mg/L] | MIC (E. faecium ATCC 35667) [mg/L] | MIC (S. haemolyticus (Meth^R)) [mg/L] | MIC (E. coli ATCC 25922) [mg/L] | MIC (P. aeruginosa ATCC 27853) [mg/L] | MIC (E. faecalis ATCC 29212) [mg/L] | MIC ([1]; S. epidermidis ATCC 31432, read-out: MIC) [mg/L] | MIC (S. aureus ATCC 25923; S. aureus ATCC 25923, read-out: MIC) [mg/L]
1 | O=C(Cc1ccccc1)N[C@@H]1C(=O)N2C(C(=O)O)=C(Sc3cccc4c3CCCC4)CS[C@H]12 [Cmpd 56, (7R)-7-[(Phenylacetyl)amino]-3-(5,6,7,8-tetrahydronaphthalen-1-ylthio)-3-cephem-4-carboxylic acid] | < 0.25 | < 0.25 | 4 (≈ 8.32 µM) | < 0.25 | 4 (≈ 8.32 µM) | 16 (≈ 33.3 µM) | > 32 | > 32 | 2 (≈ 4.16 µM) | – | –
2 | O=C(Cc1ccccc1)N[C@@H]1C(=O)N2C(C(=O)O)=C(Sc3ccc4ccccc4c3Br)CS[C@H]12 [Cmpd 57, (7R)-7-[(Phenylacetyl)amino]-3-(1-bromo-naphthalen-2-ylthio)-3-cephem-4-carboxylic acid] | < 0.25 | < 0.25 | 2 (≈ 3.6 µM) | < 0.25 | 1 (≈ 1.8 µM) | 4 (≈ 7.2 µM) | 32 (≈ 57.6 µM) | 32 (≈ 57.6 µM) | 2 (≈ 3.6 µM) | – | –
3 | O=C(Cc1ccccc1)N[C@@H]1C(=O)N2C(C(=O)O)=C(Sc3ccc(CSC4=NCCN4)cc3I)CS[C@H]12 [Cmpd 59, (7R)-7-[(Phenylacetyl)amino]-3-(4-(2-imidazolin-2-ylthiomethyl)-2-iodophenylthio)-3-cephem-4-carboxylic acid] | < 0.25 | < 0.25 | 8 (≈ 12 µM) | < 0.25 | 4 (≈ 6 µM) | 16 (≈ 24 µM) | > 32 | > 32 | 4 (≈ 6 µM) | – | –
4 | N=C(N)NC(=N)SCc1ccc(SC2=C(C(=O)O)N3C(=O)[C@@H](NC(=O)Cc4ccccc4)[C@H]3SC2)c(I)c1 [Cmpd 60, (7R)-7-[(Phenylacetyl)amino]-3-(4-(N-amidino)isothiouroniummethyl-2-iodophenylthio)-3-cephem-4-carboxylate, inner salt] | < 0.25 | < 0.25 | 4 | < 0.25 | 1 | 4 to 8 | > 32 | > 32 | 1 | – | –
5 | N=C(NCCN1CCOCC1)SCc1ccc(SC2=C(C(=O)O)N3C(=O)[C@@H](NC(=O)Cc4ccccc4)[C@H]3SC2)c(I)c1 [Cmpd 61, (7R)-7-[(Phenylacetyl)amino]-3-(4-(N-morpholinoethyl)isothiouroniummethyl-2-iodophenylthio)-3-cephem-4-carboxylate, inner salt] | – | – | 16 | 0.5 | 4 | > 32 | > 32 | > 32 | 4 | < 0.25 | < 0.25
6 | CN(C)C(SCc1ccc(SC2=C(C(=O)[O-])N3C(=O)[C@@H](NC(=O)Cc4ccccc4)[C@H]3SC2)c(I)c1)=[N+](C)C [Cmpd 62, (7R)-7-[(Phenylacetyl)amino]-3-(4-tetra-methylisothiouroniummethyl-2-iodophenylthio)-3-cephem-4-carboxylate, inner salt] | < 0.25 | < 0.25 | 16 | < 0.25 | 4 | 32 | > 32 | > 32 | 2 | – | –
7 | N=C(N)SCc1ccc(SC2=C(C(=O)O)N3C(=O)[C@@H](NC(=O)Cc4ccccc4)[C@H]3SC2)cc1 [Cmpd 63, (7R)-7-[(Phenylacetyl)amino]-3-(4-isothiouroniummethylphenylthio)-3-cephem-4-carboxylate, inner salt] | < 0.25 | < 0.25 | 16 | < 0.25 | 1 | 32 | 8 | > 32 | 1 | – | –
8 | N#CCC(=O)N[C@@H]1C(=O)N2C(C(=O)O)=C(Sc3ccc(CSC(=N)N)cc3I)CS[C@H]12 [Cmpd 66, (7R)-7-[(Cyanoacetyl)amino]-3-(4-isothiouroniummethyl-2-iodophenylthio)-3-cephem-4-carboxylate, inner salt] | < 0.25 | < 0.25 | 8 | < 0.25 | 1 | 8 | > 32 | > 32 | 4 | – | –
9 | C[n+]1cccc(SC2=C(C(=O)[O-])N3C(=O)[C@@H](NC(=O)Cc4ccccc4)[C@H]3SC2)c1-c1ccccc1 [Cmpd 82, (7R)-7-[(Phenylacetyl)amino]-3-(2-phenyl-N-methylpyridin-3-iumthio)-3-cephem-4-carboxylate] | < 0.25 | < 0.25 | 16 (≈ 30.9 µM) | < 0.25 | 4 (≈ 7.73 µM) | 32 (≈ 61.8 µM) | > 32 | > 32 | 1 (≈ 1.93 µM) | – | –
10 | O=C(Cc1ccccc1)N[C@@H]1C(=O)N2C(C(=O)[O-])=C(Sc3ccc[n+](Cc4ccccc4)c3-c3ccccc3)CS[C@H]12 [Cmpd 83, (7R)-7-[(Phenylacetyl)amino]-3-(2-phenyl-N-benzylpyridin-3-iumthio)-3-cephem-4-carboxylate] | < 0.25 | < 0.25 | 16 (≈ 26.9 µM) | < 0.25 | 2 (≈ 3.37 µM) | 32 (≈ 53.9 µM) | > 32 | > 32 | 1 (≈ 1.68 µM) | – | –
11 | O=C(Cc1ccc(Cl)cc1)N[C@@H]1C(=O)N2C(C(=O)O)=C(Sc3cccnc3-c3ccccc3)CS[C@H]12 [Cmpd 84, (7R)-7-[(4-Chlorophenylacetyl)amino]-3-(2-phenylpyridin-3-ylthio)-3-cephem-4-carboxylic acid] | < 0.25 | < 0.25 | 8 (≈ 14.9 µM) | < 0.25 | 1 (≈ 1.86 µM) | 8 (≈ 14.9 µM) | > 32 | > 32 | 1 (≈ 1.86 µM) | – | –
